{"source": "patent US8916567B2", "about": "“Certain crystalline hydrates, pharmaceutical compositions thereof and methods for preparation and use thereof” (Universal Technology Alliance, Inc., priority 2009, dated 2014)", "key": {"S. epidermidis MRSE": {"test_system": "S. epidermidis MRSE", "test": "Minimum inhibitory concentration (MIC) in vitro, agar dilution method", "type": "cell-based", "source_text": "(§1) Hydrates Samples: • The 1/2 hydrates prepared according to Example 2; • Content (purity % wt): 99.0%; • The 1/12 hydrates prepared according to Example 253; • Content (purity % wt): 98.9%; • The 2/7 hydrates prepared according to Example 106; • Content (purity % wt): 98.8%; • The 2/5 hydrates prepared according to Example 162; • Content (purity % wt): 99.0%; • The 3/4 hydrates prepared according to Example 337; • Content (purity % wt): 98.8%; • Preparation: dissolved in DMSO, and further diluted with sterile distilled water to desired concentration. • The hydrates samples were supplied by Sichuan Beilike Biotechnology LTD.\n(§2) Anhydrous Sample: • The anhydrous compounds prepared according to Example 1. • Content (purity % wt): 98.6%; • Preparation: dissolved in DMSO, and further diluted with sterile distilled water to desired concentration; • The anhydrous sample was supplied by Sichuan Beilike Biotechnology LTD.\n(§3) Control Samples • Vancomycin: provided by Sichuan Beilike Biotechnology LTD, purchased from Eli Lilly Japan K.K. • Lot No.: WM16151 (production date: Apr. 10, 2007, expiration date: Apr. 9, 2009). • Specification: 500 mg/bottle; solubility (physicochemical properties): soluble in water. • Linezolid (LZ): provided by Sichuan Beilike Biotechnology LTD.\n(§4) Bacteria Strains • Clinically isolated strains: clinically isolated bacterial pathogens collected in Sichuan and Beijing areas from March 2007 to May 2008. • Species include: Staphylococcus aureus MRSA, Staphylococcus aureus MSSA, S. epidermidis MRSE, S. epidermidis MSSE, E. feacalis, and E. feacium, a total of 51 strains. • Quality control strains: Staphylococcus aureus […] strain kept in Sichuan Industrial Institute of Antibiotics, purchased from the medical testing center of the Ministry of Health, China.\n(§5) Experimental Method: • Measurement of the minimum inhibitory concentration (MIC) in vitro: • The minimum inhibitory concentration (MIC) of each test sample against test strains was measured by using the agar dilution method recommended by the U.S. National Committee for Clinical Laboratory Standards (CLSI/NCCIs).\n(§6) Based on the CLSI/NCCL's testing standard with respect to vancomycin and linezolid (see Table 6), the minimum inhibitory concentration (MIC) values of every strain were reported, and the MIC50 (the concentration that inhibits 50% of the different strains of bacteria), MIC90 (the concentration that inhibits 90% of the different strains of bacteria), and MICrange (the range of the MIC value of the tested strains) were observed."}, "[1]": {"test_system": "Staphylococcus aureus MRSA", "test": "Minimum inhibitory concentration (MIC) in vitro, agar dilution method", "type": "cell-based", "settings": "S. MRSA (10 strains), clinically isolated", "source_text": "as §1, §2, §3, §4, §5, §6"}, "S. epidermidis MSSE": {"test_system": "S. epidermidis MSSE", "test": "Minimum inhibitory concentration (MIC) in vitro, agar dilution method", "type": "cell-based", "source_text": "as §1, §2, §3, §4, §5, §6"}, "E. feacalis": {"test_system": "E. feacalis", "test": "Minimum inhibitory concentration (MIC) in vitro, agar dilution method", "type": "cell-based", "source_text": "as §1, §2, §3, §4, §5, §6"}, "[2]": {"test_system": "Staphylococcus aureus MSSA", "test": "Minimum inhibitory concentration (MIC) in vitro, agar dilution method", "type": "cell-based", "settings": "S. MSSA (11 strains), clinically isolated", "source_text": "as §1, §2, §3, §4, §5, §6"}, "E. feacium": {"test_system": "E. feacium", "test": "Minimum inhibitory concentration (MIC) in vitro, agar dilution method", "type": "cell-based", "source_text": "as §1, §2, §3, §4, §5, §6"}, "[3]": {"test": "Solubility in different solvents according to Chinese Pharmacopeia (2005 edition)", "type": "physicochemical", "settings": "at the given solute:solvent ratio", "protocol": "The solubility of the (S)—[N-3-(3′-fluoro-4′-(4″-phenylpiperazinyl))phenyl-2-oxo-5-oxazolelidinyl]methylacetamide hydrates was tested with different solvents, and the test results are shown in Tables 15-19. The solubility was measured according to Chinese Pharmacopeia (2005 edition)."}, "[4]": {"settings": "S. ep MRSE (10 strains), clinically isolated"}, "[5]": {"settings": "S. ep MSSE (10 strains), clinically isolated"}, "[6]": {"settings": "E. feacalis (5 strains), clinically isolated"}, "[7]": {"settings": "E. feacium (5 strains), clinically isolated"}}}
{"compound": "CC(=O)NC[C@H]1CN(c2ccc(N3CCN(c4ccccc4)CC3)c(F)c2)C(=O)O1", "note": "[Anhydrous compound]", "values": [{"measurement": "MIC50", "setting": "S. epidermidis MRSE; [4]", "value": 2, "unit": "µg/mL"}, {"measurement": "MIC90", "setting": "S. epidermidis MRSE; [4]", "value": 2, "unit": "µg/mL"}, {"measurement": "MICrange", "setting": "S. epidermidis MRSE; [4]", "value": 2, "unit": "µg/mL"}, {"measurement": "MIC", "setting": "S. epidermidis MRSE; strain S. ep MRSE4 (Table 8 No. 9)", "value": 2, "unit": "µg/mL"}, {"measurement": "MIC", "setting": "S. epidermidis MRSE; strain S. ep MRSE20 (Table 8 No. 6)", "value": 2, "unit": "µg/mL"}, {"measurement": "MIC", "setting": "S. epidermidis MRSE; strain S. ep MRSE87 (Table 8 No. 13)", "value": 2, "unit": "µg/mL"}, {"measurement": "MIC", "setting": "S. epidermidis MRSE; strain S. ep MRSE90 (Table 8 No. 10)", "value": 2, "unit": "µg/mL"}, {"measurement": "MIC", "setting": "S. epidermidis MRSE; strain S. ep MRSE101 (Table 8 No. 7)", "value": 2, "unit": "µg/mL"}, {"measurement": "MIC", "setting": "S. epidermidis MRSE; strain S. ep MRSE105 (Table 8 No. 11)", "value": 2, "unit": "µg/mL"}, {"measurement": "MIC", "setting": "S. epidermidis MRSE; strain S. ep MRSE140 (Table 8 No. 14)", "value": 2, "unit": "µg/mL"}, {"measurement": "MIC", "setting": "S. epidermidis MRSE; strain S. ep MRSE142 (Table 8 No. 12)", "value": 2, "unit": "µg/mL"}, {"measurement": "MIC", "setting": "S. epidermidis MRSE; strain S. ep MRSE210 (Table 8 No. 15)", "value": 2, "unit": "µg/mL"}, {"measurement": "MIC", "setting": "S. epidermidis MRSE; strain S. ep MRSE211 (Table 8 No. 8)", "value": 2, "unit": "µg/mL"}, {"measurement": "MIC50", "setting": "[1]", "value": 2, "unit": "µg/mL"}, {"measurement": "MIC90", "setting": "[1]", "value": 2, "unit": "µg/mL"}, {"measurement": "MICrange", "setting": "[1]", "value": "1 to 2", "unit": "µg/mL"}, {"measurement": "MIC50", "setting": "S. epidermidis MSSE; [5]", "value": 1, "unit": "µg/mL"}, {"measurement": "MIC90", "setting": "S. epidermidis MSSE; [5]", "value": 2, "unit": "µg/mL"}, {"measurement": "MICrange", "setting": "S. epidermidis MSSE; [5]", "value": "1 to 2", "unit": "µg/mL"}, {"measurement": "MIC", "setting": "S. epidermidis MSSE; strain S. ep MSSE88 (Table 8 No. 5)", "value": 2, "unit": "µg/mL"}, {"measurement": "MIC", "setting": "S. epidermidis MSSE; strain S. ep MSSE118 (Table 8 No. 2)", "value": 1, "unit": "µg/mL"}, {"measurement": "MIC", "setting": "S. epidermidis MSSE; strain S. ep MSSE137 (Table 8 No. 4)", "value": 2, "unit": "µg/mL"}, {"measurement": "MIC", "setting": "S. epidermidis MSSE; strain S. ep MSSE140 (Table 8 No. 3)", "value": 1, "unit": "µg/mL"}, {"measurement": "MIC", "setting": "S. epidermidis MSSE; strain S. ep MSSE153 (Table 8 No. 1)", "value": 2, "unit": "µg/mL"}, {"measurement": "MIC50", "setting": "E. feacalis; [6]", "value": 4, "unit": "µg/mL"}, {"measurement": "MIC90", "setting": "E. feacalis; [6]", "value": 8, "unit": "µg/mL"}, {"measurement": "MICrange", "setting": "E. feacalis; [6]", "value": "2 to 8", "unit": "µg/mL"}, {"measurement": "MIC", "setting": "E. feacalis; strain Efa 54 (Table 8 No. 20)", "value": 4, "unit": "µg/mL"}, {"measurement": "MIC", "setting": "E. feacalis; strain Efa 116 (Table 8 No. 16)", "value": 4, "unit": "µg/mL"}, {"measurement": "MIC", "setting": "E. feacalis; strain Efa 907 (Table 8 No. 19)", "value": 2, "unit": "µg/mL"}, {"measurement": "MIC", "setting": "E. feacalis; strain Efa 3006 (Table 8 No. 18)", "value": 4, "unit": "µg/mL"}, {"measurement": "MIC", "setting": "E. feacalis; strain Efa 33748 (Table 8 No. 17)", "value": 8, "unit": "µg/mL"}, {"measurement": "MIC50", "setting": "[2]", "value": 2, "unit": "µg/mL"}, {"measurement": "MIC90", "setting": "[2]", "value": 2, "unit": "µg/mL"}, {"measurement": "MICrange", "setting": "[2]", "value": "1 to 2", "unit": "µg/mL"}, {"measurement": "MIC50", "setting": "E. feacium; [7]", "value": 4, "unit": "µg/mL"}, {"measurement": "MIC90", "setting": "E. feacium; [7]", "value": 8, "unit": "µg/mL"}, {"measurement": "MICrange", "setting": "E. feacium; [7]", "value": "2 to 8", "unit": "µg/mL"}, {"measurement": "MIC", "setting": "E. feacium; strain Efm 98 (Table 8 No. 21)", "value": 4, "unit": "µg/mL"}, {"measurement": "MIC", "setting": "E. feacium; strain Efm 171 (Table 8 No. 25)", "value": 4, "unit": "µg/mL"}, {"measurement": "MIC", "setting": "E. feacium; strain Efm 197 (Table 8 No. 22)", "value": 2, "unit": "µg/mL"}, {"measurement": "MIC", "setting": "E. feacium; strain Efm N3 (Table 8 No. 23)", "value": 8, "unit": "µg/mL"}, {"measurement": "MIC", "setting": "E. feacium; strain Efm N4 (Table 8 No. 24)", "value": 8, "unit": "µg/mL"}]}
{"compound": "CC(=O)NC[C@H]1CN(c2ccc(N3CCN(c4ccccc4)CC3)c(F)c2)C(=O)O1", "note": "[Example 1, (S)—[N-3-(3′-fluoro-4′-(4″-phenylpiperazinyl))phenyl-2-oxo-5-oxazolidinyl]methyl acetamide]", "values": [{"measurement": "Result", "setting": "[3]; solvent 0.1N Hydrochloric acid", "value": "Dissolved"}, {"measurement": "Result", "setting": "[3]; solvent 0.1N Sodium hydroxide", "value": "Insoluble"}, {"measurement": "Result", "setting": "[3]; solvent Acetonitrile", "value": "Dissolved"}, {"measurement": "Result", "setting": "[3]; solvent Ethanol", "value": "Dissolved"}, {"measurement": "Result", "setting": "[3]; solvent Methanol", "value": "Dissolved"}, {"measurement": "Result", "setting": "[3]; solvent Water, listed as Anhydride", "value": "Insoluble"}]}
